Measurements as given in patent US20220249599A1, “TREATMENT OF IMPLANTS WITH ENGINEERED ANTIMICROBIAL AMPHIPHILIC PEPTIDES” (priority 2018, published 2022).
In brackets after ≈: the same amount, converted by molar mass. Where two headings read alike, the source gives them in different places.

What was measured:
[1] = system: Acinetobacter spp. (n = 104); type: cell-based; conditions: Acinetobacter spp. (n = 104), CLSI breakpoints
Procedure: (§1) The clinical isolates were obtained from USA hospitals. […] Plates were incubated at 35° C. overnight.

[2] = system: Escherichia coli (n = 101); type: cell-based; conditions: Escherichia coli (n = 101), CLSI breakpoints, colistin EUCAST
Procedure: as §1

[3] = system: Pseudomonas aeruginosa (n = 109); type: cell-based; conditions: Pseudomonas aeruginosa (n = 109), CLSI breakpoints
Procedure: as §1

[4] = system: Enterobacter spp. (n = 102); type: cell-based, Enterobacter aerogenes and E. cloacae; conditions: Enterobacter spp. (n = 102), CLSI breakpoints, colistin EUCAST
Procedure: as §1

[5] = system: Staphylococcus aureus (n = 104); assay: microbe, parasite or virus in culture; type: cell-based; conditions: Staphylococcus aureus (n = 104); for % R (isolates resistant): CLSI breakpoints
Procedure: as §1

[6] = system: Enterococcus faecium (n = 104); assay: microbe, parasite or virus in culture; conditions: Enterococcus faecium (n = 104), CLSI breakpoints
Procedure: Comparator antibiotics were supplied by Micromyx, and stock solutions were prepared on the first day of testing using solvents recommended by CLSI (1). Stock solutions of all compounds were made at 40× the final testing concentration and stored at −80° C. prior to testing. Information regarding compound source, catalog and lot number, testing concentrations and drug diluent for the comparators and test agent are detailed below in Table 3.
The test organisms evaluated in this study consisted of clinical isolates from the Micromyx Repository and reference isolates from the American Type Culture Collection (ATCC; Manassas, Va.). The clinical isolates were obtained from USA hospitals. Upon initial receipt at Micromyx, the organisms were sub-cultured onto an appropriate agar medium. Following incubation, colonies were harvested from these plates and cell suspensions prepared and frozen at −80° C. with a cryoprotectant. Prior to testing, the isolates were streaked from frozen vials onto Trypticase Soy Agar with 5% sheep blood (Becton Dickenson [BD]; Sparks, MD; Lot Nos. 7173618, 7166759, 7208688, 72144895, 7228505 and Remel Lenexa, Kans. Lot No. 212574). Plates were incubated at 35° C. overnight.
Mueller Hinton II broth (MHB II; BD; Lot Nos. 6258541 and 7143896) was used for MIC testing of aerobic organisms.
(§2) MIC values were determined using a broth microdilution procedure described by CLSI (1, 3). Automated liquid handlers (Multidrop 384, Labsystems, Helsinki, Finland; Biomek 2000 and Biomek FX, Beckman Coulter, Fullerton Calif.) were used to conduct serial dilutions and liquid transfers.
To prepare the drug mother plates, which would provide the serial drug dilutions for the replicate daughter plates, the wells of columns 2-12 of standard 96-well microdilution plates (Costar 3795) were filled with 150 µl of the designated diluent for each row of drug. The test articles and comparator compounds ([…] at 40× the highest concentration to be tested) were dispensed into the appropriate wells in column 1. The Biomek 2000 was then used to make 2-fold serial dilutions in the mother plates from column 1 through column 11. The wells of Column 12 contained no drug and served as the organism growth control wells for the assay.
(§3) The daughter plates were loaded with 185 g L per well of MHB II using the Multidrop 384. The daughter plates were completed on the Biomek FX instrument which transferred 5 µL of drug solution from each well of a mother plate to the corresponding well of each daughter plate in a single step. A standardized inoculum of each test organism was prepared per CLSI methods (1). The inoculum for each organism was dispensed into sterile reservoirs divided by length (Beckman Coulter), and the Biomek 2000 was used to inoculate the plates. Daughter plates were placed on the Biomek 2000 work surface in reverse orientation so that inoculation took place from low to high drug concentration.
(§4) Plates were stacked 3-4 high, covered with a lid on the top plate, placed in plastic bags, and incubated at 35° C. for 16 to 20 hrs. Following incubation, the microplates were removed from the incubator and viewed from the bottom using a plate viewer. […] The MIC was read and recorded as the lowest concentration of drug that inhibited visible growth of the organism.
Clinical breakpoints to determine percent resistance within a given organism group were obtained from CLSI (3), with the exception of colistin for K. pneumoniae, Enterobacter spp., and E. coli, which are only available from EUCAST.

[7] = system: Acinetobacter baumannii ATCC BAA-1797 (MDR); assay: microbe, parasite or virus in culture; type: cell-based; conditions: ATCCBAA1797; Acinetobacter baumannii ATCC BAA-1797 (MDR); read-out: MIC
Procedure: Each peptide was formulated in PBS buffer prior to testing. Peptides of SEQ ID NO:5 and SEQ ID NO:8 were brought up in 100% DMSO with 0.002% polysorbate-80 at 1.28 mg/mL (40× the highest final test concentration of 32 mcg/mL). Final test concentration of DMSO was 2.5% in the assay at the first dilution for those two compounds.
Mueller Hinton II broth (MHB II; BD; Lot Nos. 6258541 and 7143896) was used for MIC testing of aerobic organisms. 0.002% polysorbate 80 (P80) was added to the test medium.
as §2
To prepare the drug mother plates, which would provide the serial peptide dilutions for the replicate daughter plates, the wells of columns 2-12 of standard 96-well microdilution plates (Costar 3795) were filled with 150 µl of the designated diluent for each row of peptide.
The test articles and comparator compounds ([…] at 40× the highest concentration to be tested) were dispensed into the appropriate wells in column 1. The Biomek 2000 was then used to make 2-fold serial dilutions in the mother plates from column 1 through column 11. The wells of Column 12 contained no drug and served as the organism growth control wells for the assay.
as §3, with “185 μL” for “185 g L”, “5 uL” for “5 µL”, “of peptide” for “of drug”, “CLSI methods.” for “CLSI methods (1).”
as §4, with “peptide” for “drug”

[8] = system: Klebsiella pneumoniae (n = 101); type: cell-based
Procedure: as §1

Compound	% R (isolates resistant) [1] [%]	% R (isolates resistant) [2] [%]	% R (isolates resistant) [3] [%]	% R (isolates resistant) [4] [%]	MIC90 [5] [µg/mL]	% R (isolates resistant) [5] [%]	% R (isolates resistant) [6] [%]	MIC range ([5]; all methicillin-resistant) [µg/mL]	MIC [7] [µg/mL]	% R (isolates resistant) ([5]; listed as levofloxacin)	% R (isolates resistant) ([2]; listed as levofloxacin) [%]	% R (isolates resistant) [8]	% R (isolates resistant) ([8]; Klebsiella pneumoniae (n = 101), CLSI breakpoints, colistin EUCAST) [%]
CC(C)(O/N=C(\C(=O)N[C@@H]1C(=O)N2C(C(=O)[O-])=C(C[n+]3ccccc3)CS[C@H]12)c1csc(N)n1)C(=O)O [Ceftazidime]	61.5	33.6	14.6	36.3	–	–	–	–	–	–	–	–	–
CCC[C@@H]1C[C@@H](C(=O)N[C@@H]([C@H]2O[C@H](SC)[C@H](O)[C@@H](O)[C@H]2O)[C@H](C)Cl)N(C)C1 [Clindamycin]	–	–	–	–	>16	37.5	–	–	–	–	–	–	–
C[C@H]1c2cccc(O)c2C(=O)C2=C(O)[C@]3(O)C(=O)C(C(N)=O)=C(O)[C@@H](N(C)C)[C@@H]3[C@@H](O)[C@@H]21 [Doxycycline]	–	–	–	–	–	0	25	0.06 to 8	–	–	–	–	–
C[C@H]1COc2c(N3CCN(C)CC3)c(F)cc3c(=O)c(C(=O)O)cn1c23 [Levofloxacin]	66.3	46.5	21.1	4.9	>8	82.7	–	–	4 (≈ 11.1 µM)	Over 80%	~50	over 60%	67.3
